According to US12029682B2, “Spray ejector mechanisms and devices providing charge isolation and controllable droplet charge, and low dosage volume ophthalmic administration” (EYENOVIA, INC., priority 2012, dated 2024):

Legend:
[1] = Pharmacokinetic study: acid of latanoprost in aqueous humor (AH) by HPLC; assay type: in vivo, beagle dog; conditions: delivered by the spray ejector device
Procedure: Eight normal laboratory beagles were chosen for this study. Conditions for inclusion included normal overall health and normal ophthalmic state as determined by gross eye exam by a boarded veterinary ophthalmologist. Pre- and post-dosing mass deposition calibrations of the spray device were consistently within 10% of the intended dose of 9 μl. A 9.0 μl dose of a commercially available prostaglandin pro-drug, latanoprost, was instilled topically in two eyes of each of eight normotensive beagle dogs using the spray ejector device. Levels of the acid of latanoprost were measured in aqueous humor (AH) obtained by aqueocentesis over a 7-hour period each day for 5 days. This protocol was repeated for latanoprost 0.005% delivered by eyedropper (average dose 26 μl).
All dogs received a washout and acclimation period of two weeks. In Week 1, all animals were assigned to a group, with two animals each in Groups 1, 2, 4, and 7. […] IOP and PD were measured while the topical anesthetic took effect. […]
Week 3 followed the Week 1 protocol, with the substitution of eyedropper-delivered 0.005% latanoprost at an average dose of 26 μl at time 0. […] All AH samples were frozen to −80° C., stored overnight on dry ice, and then analyzed for the acid of latanoprost using a latanoprost-specific HPLC methodology. […]

glaucomatous beagles = test: Pupil diameter (PD), Jameson Caliper, in glaucomatous beagles; assay type: in vivo, beagle dog; conditions: for PD: spray ejector device, one dog
Procedure: (§1) One glaucomatous beagle dog (female, aged 3 years) from the University of Florida MacKay Colony of Glaucomatous Beagles was chosen for this study. The animal was rested a minimum of one week before starting the study. Prior to the commencement of the study, the animal was assigned one eye to receive 1.5 μl of 0.005% latanoprost and the contralateral eye to remain untreated as a control. The basic measurement protocol was followed at all times and performed by the same operator. PD was measured via Jameson Caliper (mm horizontally). IOP was measured using a TonoVet instrument with clean probe (iCare). IOP and PD were measured at time 0, 1, 2, 4, 7 and 18 hours daily for two days. Immediately after the time 0 measurement, the animal received 1.5 μl of 0.005% latanoprost in its assigned eye with a spray device. The contralateral eye was left untreated. The spray device was checked for accuracy before and after every use, and required a 10% delivered dose accuracy in pretreatment. Standard measurements continued throughout each day at time 1, 2, 4, 7 and 18 hours. Possible endpoints included, but were not limited to, excessive ocular irritation, ocular damage, and other illness or injury. No statistical crossover was utilized for this study.
as §1, with “study.” for “study. The animal was rested a minimum of one week before starting the study.”, “receive 3.0” for “receive 1.5”, “0 measurements,” for “0 measurement,”, “animal was administered 3.0” for “animal received 1.5”, “eye using” for “eye with”, “spray ejector” for “spray”
All animals were rested for a minimum of one week before starting the trials. IOP and pupil diameter (PD) were measured 5 times (at 0, 1, 2, 4, and 7 hours) daily for four days (study days 1-4) to establish initial baseline levels. The basic measurement protocol was followed at all times and performed by the same operator. PD was measured via Jameson Caliper (mm horizontally). IOP was measured with a TonoVet instrument with clean probe (iCare). After three rest days, one eye was randomly assigned to receive 9 μl of 0.005% latanoprost delivered via a spray ejector device, and the contralateral eye was administered traditional latanoprost from a traditional eyedropper container (26-30 μl).
On study days 5-9, IOP and PD measurements were taken at approximately 0900 h (time 0). Immediately after time 0 measurements, each animal received a once-daily dose of 9 μl of generic 0.005% latanoprost in its assigned eye via the spray ejector device. […]

SMILES: CC(C)OC(=O)CCC/C=C\C[C@@H]1[C@@H](CC[C@@H](O)CCc2ccccc2)[C@H](O)C[C@@H]1O [latanoprost]
- absorption rate vs eyedropper-delivered drug in higher doses [1]: three-fold
- PD (glaucomatous beagles; 1.5 μl of 0.005%, by hour 1 through hour 7): 0 mm
- PD (glaucomatous beagles; 3.0 μl of 0.005%, by hour 1 throughout hour 7): 0 mm
- time to return to normal PD (glaucomatous beagles; one drop of 0.005% by eyedropper): ≤ 24 h
- time at which the iris reached pinpoint status (glaucomatous beagles; traditional treatment, one drop by eyedropper, remained for the seven hours of monitoring): 1 h
- time at which the iris reached pinpoint status (maximum miosis) (glaucomatous beagles; two 6 μl doses via ejector device, remained for the seven hours of monitoring): 1 h
